Results as given in patent US7674807B2, “Heterocycle-substituted n-phenyl-phthalamide derivatives, related compounds and their use as insecticides” (Bayer CropScience AG, priority 2004, dated 2010).

Key:
[1] = test system: larva of Cnaphalocrocis medinalis Guenee; experiment: Test against larva of Cnaphalocrocis medinalis Guenee (sprayed paddy rice foliage); format: in vivo; details: 20 ppm concentration of the active component; second instar larvae; counted after 7 days; 25° C.
Experimental: Paddy rice (variety: Tamanishiki) planted in a pot was treated by spraying 50 ml per pot of the diluted aqueous solution of the prescribed concentration of the active compound prepared in the same manner as in the above-mentioned Biological Test Example 1. After the treated rice plant was dried in the air, their foliage part was cut in 4-5 cm length, which were put in a dish with 9 cm diameter with a sheet of filter paper and 2 ml of water. Five larvae of Cnaphalocrocis medinalis Guenee at the second instar were put in the dish that was placed in a room at the constant temperature of 25° C. After 2 and 4 days, each rest (each ⅓ amount) of foliage parts of rice plant were cut in the same manner and added to the dish. After 7 days the number of dead larvae was counted and the rate of death was calculated. In this test the results of 2 dishes at 1 section were averaged.

[2] = test system: larva of Spodoptera litura; experiment: Test against larva of Spodoptera litura (leaf dip, sweet potato leaves); format: in vivo; details: 20 ppm concentration of the active component; third instar larvae; counted after 7 days; 25° C.
Experimental: Preparation of Test Solution:
In order to make an appropriate formulation of an active compound, 1 part by weight of the active compound was mixed with the above-mentioned amount of solvent containing the above-mentioned amount of emulsifier and the mixture was diluted with water to a prescribed concentration.
Leaves of sweet potato were soaked in the test solution diluted to a prescribed concentration with water, dried in the air and put in a dish of 9 cm diameter.
10 larvae of Spodoptera litura at the third instar were placed on the leaves and kept in a room at the constant temperature of 25° C. After 2 and 4 days further leaves of sweet potato were added and after 7 days the number of dead larvae was counted and the rate of death was calculated.
In this test the results of 2 dishes at 1 section were averaged.

SMILES: Cc1cc(Cn2nc(C(F)(F)C(F)(F)F)nc2C(F)(F)F)ccc1NC(=O)c1cccc(Cl)c1C(=O)NC(C)(C)C[S+](C)[O-] (stereo not drawn) [compound 150]
- controlling effect, rate of death [1]: 100%
- controlling effect, rate of death [2]: 100%

SMILES: CSCC(C)NC(=O)c1c(Cl)cccc1C(=O)Nc1ccc(Cn2nc(C(F)(F)C(F)(F)F)nc2C(F)(F)F)cc1C (stereo not drawn) [compound 153]
- controlling effect, rate of death [1]: 100%
- controlling effect, rate of death [2]: 100%

SMILES: Cc1cc(Cn2nc(C(F)(F)C(F)(F)F)nc2C(F)(F)F)ccc1NC(=O)c1cccc(Cl)c1C(=O)NC(C)C[S+](C)[O-] (stereo not drawn) [compound 155]
- controlling effect, rate of death [1]: 100%
- controlling effect, rate of death [2]: 100%

SMILES: Cc1cc(Cn2nc(C(F)(F)C(F)(F)F)nc2C(F)(F)F)ccc1NC(=O)c1cccc(Cl)c1C(=O)NC(C)CS(C)(=O)=O (stereo not drawn) [compound 157]
- controlling effect, rate of death [1]: 100%
- controlling effect, rate of death [2]: 100%

SMILES: CSCC(C)NC(=O)c1c(Br)cccc1C(=O)Nc1ccc(Cn2nc(C(F)(F)F)nc2C(F)(F)F)cc1C (stereo not drawn) [compound 177]
- controlling effect, rate of death [1]: 100%
- controlling effect, rate of death [2]: 100%

SMILES: Cc1cc(Cn2nc(C(F)(F)F)nc2C(F)(F)F)ccc1NC(=O)c1cccc(Br)c1C(=O)NC(C)CS(C)(=O)=O (stereo not drawn) [compound 182]
- controlling effect, rate of death [1]: 100%
- controlling effect, rate of death [2]: 100%

SMILES: Cc1cc(Cn2nc(C(F)(F)F)nc2C(F)(F)F)ccc1NC(=O)c1cccc(I)c1C(=O)NC(C)C [compound 210]
- controlling effect, rate of death [1]: 100%
- controlling effect, rate of death [2]: 100%

SMILES: Cc1cc(Cn2nc(C(F)(F)F)nc2C(F)(F)F)ccc1NC(=O)c1cccc(I)c1C(=O)NC(C)(C)C[S+](C)[O-] (stereo not drawn) [compound 212]
- controlling effect, rate of death [1]: 100%
- controlling effect, rate of death [2]: 100%

SMILES: Cc1cc(Cn2nc(C(F)(F)F)nc2C(F)(F)F)ccc1NC(=O)c1cccc(I)c1C(=O)NC(C)C[S+](C)[O-] (stereo not drawn) [compound 216]
- controlling effect, rate of death [1]: 100%
- controlling effect, rate of death [2]: 100%

SMILES: Cc1cc(Cn2nc(C(F)(F)F)nc2C(F)(F)F)ccc1NC(=O)c1cccc(I)c1C(=O)NC(C)C[S+](C)[O-] (stereo not drawn) [compound 217]
- controlling effect, rate of death [1]: 100%
- controlling effect, rate of death [2]: 100%

SMILES: Cc1cc(Cn2nc(C(F)(F)F)nc2C(F)(F)F)ccc1NC(=O)c1cccc(I)c1C(=O)NC(C)CS(C)(=O)=O (stereo not drawn) [compound 219]
- controlling effect, rate of death [1]: 100%
- controlling effect, rate of death [2]: 100%

SMILES: CC[S+]([O-])CC(C)NC(=O)c1c(I)cccc1C(=O)Nc1ccc(Cn2nc(C(F)(F)F)nc2C(F)(F)F)cc1C (stereo not drawn) [compound 221]
- controlling effect, rate of death [1]: 100%
- controlling effect, rate of death [2]: 100%

SMILES: CSCC(C)NC(=O)c1c(I)cccc1C(=O)Nc1ccc(Cn2nc(C(F)(F)C(F)(F)F)nc2C(F)(F)F)cc1C (stereo not drawn) [compound 227]
- controlling effect, rate of death [1]: 100%
- controlling effect, rate of death [2]: 100%

SMILES: Cc1cc(Cn2nc(C(F)(F)C(F)(F)F)nc2C(F)(F)F)ccc1NC(=O)c1cccc(I)c1C(=O)NC(C)C[S+](C)[O-] (stereo not drawn) [compound 229]
- controlling effect, rate of death [1]: 100%
- controlling effect, rate of death [2]: 100%

SMILES: Cc1cc(Cn2nc(C(F)(F)C(F)(F)F)nc2C(F)(F)F)ccc1NC(=O)c1cccc(I)c1C(=O)NC(C)CS(C)(=O)=O (stereo not drawn) [compound 230]
- controlling effect, rate of death [1]: 100%
- controlling effect, rate of death [2]: 100%

SMILES: Cc1cc(Cn2nc(C(F)(F)C(F)(F)F)nc2C(F)(F)F)ccc1NC(=O)c1cccc(I)c1C(=O)NC(C)CS(C)(=O)=O (stereo not drawn) [compound 231]
- controlling effect, rate of death [1]: 100%
- controlling effect, rate of death [2]: 100%

SMILES: CSCC(C)NC(=O)c1c(I)cccc1C(=O)Nc1ccc(Cn2nc(C(F)(F)F)nc2C(F)F)cc1C (stereo not drawn) [compound 238]
- controlling effect, rate of death [1]: 100%
- controlling effect, rate of death [2]: 100%

SMILES: Cc1cc(Cn2nc(C(F)(F)F)nc2C(F)F)ccc1NC(=O)c1cccc(I)c1C(=O)NC(C)CS(C)(=O)=O (stereo not drawn) [compound 242]
- controlling effect, rate of death [1]: 100%
- controlling effect, rate of death [2]: 100%

SMILES: CSCC(C)NC(=O)c1c(OS(C)(=O)=O)cccc1C(=O)Nc1ccc(Cn2nc(C(F)(F)F)nc2C(F)(F)F)cc1C (stereo not drawn) [compound 251]
- controlling effect, rate of death [1]: 100%
- controlling effect, rate of death [2]: 100%

SMILES: Cc1cc(Cn2nc(C(F)(F)F)nc2C(F)(F)F)ccc1NC(=O)c1cccc(OS(C)(=O)=O)c1C(=O)NC(C)C[S+](C)[O-] (stereo not drawn) [compound 253]
- controlling effect, rate of death [1]: 100%
- controlling effect, rate of death [2]: 100%

SMILES: CSCC(C)NC(=O)c1c(I)cccc1C(=O)Nc1ccc(Cc2c(C(F)(F)F)nn(C(F)F)c2OC(F)F)cc1C (stereo not drawn) [compound 262]
- controlling effect, rate of death [1]: 100%
- controlling effect, rate of death [2]: 100%

SMILES: Cc1cc(Cc2c(C(F)(F)F)nn(C(F)F)c2OC(F)F)ccc1NC(=O)c1cccc(I)c1C(=O)NC(C)CS(C)(=O)=O (stereo not drawn) [compound 264]
- controlling effect, rate of death [1]: 100%
- controlling effect, rate of death [2]: 100%

SMILES: CSCC(C)NC(=O)c1c(I)cccc1C(=O)Nc1ccc(Cc2c(OC(F)F)nn(C(F)F)c2C(F)(F)F)cc1C (stereo not drawn) [compound 268]
- controlling effect, rate of death [1]: 100%
- controlling effect, rate of death [2]: 100%

SMILES: Cc1cc(Cc2c(OC(F)F)nn(C(F)F)c2C(F)(F)F)ccc1NC(=O)c1cccc(I)c1C(=O)NC(C)CS(C)(=O)=O (stereo not drawn) [compound 270]
- controlling effect, rate of death [1]: 100%
- controlling effect, rate of death [2]: 100%

SMILES: CSCC(C)NC(=O)c1c(I)cccc1C(=O)Nc1ccc(Cn2cc(C(F)(F)F)nc2C(F)(F)F)cc1C (stereo not drawn) [compound 281]
- controlling effect, rate of death [1]: 100%
- controlling effect, rate of death [2]: 100%

SMILES: CSCC(C)NC(=O)c1c(I)cccc1C(=O)Nc1ccc(Cn2c(C(F)(F)F)nnc2C(F)(F)F)cc1C (stereo not drawn) [compound 299]
- controlling effect, rate of death [1]: 100%
- controlling effect, rate of death [2]: 100%

SMILES: CSCC(C)(C)NC(=O)c1c(I)cccc1C(=O)Nc1ccc(Oc2nc(C(F)(F)F)cc(C(F)(F)F)n2)cc1C [compound 308]
- controlling effect, rate of death [1]: 100%
- controlling effect, rate of death [2]: 100%

SMILES: Cc1cc(Oc2nc(C(F)(F)F)cc(C(F)(F)F)n2)ccc1NC(=O)c1cccc(I)c1C(=O)NC(C)(C)CS(C)(=O)=O [compound 310]
- controlling effect, rate of death [1]: 100%
- controlling effect, rate of death [2]: 100%

SMILES: CSCC(C)NC(=O)c1c(Cl)cccc1C(=O)Nc1ccc(-n2nc(C(F)(F)F)cc2C(F)(F)F)cc1C (stereo not drawn) [compound 318]
- controlling effect, rate of death [1]: 100%
- controlling effect, rate of death [2]: 100%

SMILES: Cc1cc(-n2nc(C(F)(F)F)cc2C(F)(F)F)ccc1NC(=O)c1cccc(Cl)c1C(=O)NC(C)CS(C)(=O)=O (stereo not drawn) [compound 322]
- controlling effect, rate of death [1]: 100%
- controlling effect, rate of death [2]: 100%

SMILES: CSCC(C)NC(=O)c1c(I)cccc1C(=O)Nc1ccc(-n2nc(C(F)(F)F)cc2C(F)(F)F)cc1C (stereo not drawn) [compound 413]
- controlling effect, rate of death [1]: 100%
- controlling effect, rate of death [2]: 100%

SMILES: CSCC(C)NC(=O)c1c(I)cccc1C(=O)Nc1ccc(-n2nc(C(F)(F)F)cc2C(F)(F)F)cc1C (stereo not drawn) [compound 414]
- controlling effect, rate of death [1]: 100%
- controlling effect, rate of death [2]: 100%

SMILES: Cc1cc(-n2nc(C(F)(F)F)cc2C(F)(F)F)ccc1NC(=O)c1cccc(I)c1C(=O)NC(C)CS(C)(=O)=O (stereo not drawn) [compound 417]
- controlling effect, rate of death [1]: 100%
- controlling effect, rate of death [2]: 100%

SMILES: CSCC(C)(C)NC(=O)c1c(I)cccc1C(=O)Nc1ccc(-n2nccc2C(F)(F)C(F)(F)F)cc1C [compound 422]
- controlling effect, rate of death [1]: 100%
- controlling effect, rate of death [2]: 100%

SMILES: CSCC(C)(C)NC(=O)c1c(I)cccc1C(=O)Nc1ccc(-n2ccc(C(F)(F)C(F)(F)F)n2)cc1C [compound 434]
- controlling effect, rate of death [1]: 100%
- controlling effect, rate of death [2]: 100%

SMILES: Cc1cc(-n2cc(C(F)(F)C(F)(F)F)cn2)ccc1NC(=O)c1cccc(I)c1C(=O)NC(C)(C)CS(C)(=O)=O [compound 448]
- controlling effect, rate of death [1]: 100%
- controlling effect, rate of death [2]: 100%

SMILES: CSCC(C)NC(=O)c1c(I)cccc1C(=O)Nc1ccc(-n2nc(C(F)(F)C(F)(F)F)cc2C(F)(F)F)cc1C (stereo not drawn) [compound 473]
- controlling effect, rate of death [1]: 100%
- controlling effect, rate of death [2]: 100%

SMILES: Cc1cc(-n2nc(C(F)(F)C(F)(F)F)cc2C(F)(F)F)ccc1NC(=O)c1cccc(I)c1C(=O)NC(C)CS(C)(=O)=O (stereo not drawn) [compound 475]
- controlling effect, rate of death [1]: 100%
- controlling effect, rate of death [2]: 100%

SMILES: CSC[C@H](C)NC(=O)c1c(OS(C)(=O)=O)cccc1C(=O)Nc1ccc(-n2nc(C(F)(F)F)cc2C(F)(F)F)cc1C [compound 492]
- controlling effect, rate of death [1]: 100%
- controlling effect, rate of death [2]: 100%

SMILES: CSCC(C)NC(=O)c1c(I)cccc1C(=O)Nc1ccc(-c2cc(C(F)(F)F)nn2CC(F)(F)F)cc1C (stereo not drawn) [compound 506]
- controlling effect, rate of death [1]: 100%
- controlling effect, rate of death [2]: 100%

SMILES: Cc1cc(-c2cc(C(F)(F)F)nn2CC(F)(F)F)ccc1NC(=O)c1cccc(I)c1C(=O)NC(C)CS(C)(=O)=O (stereo not drawn) [compound 508]
- controlling effect, rate of death [1]: 100%
- controlling effect, rate of death [2]: 100%

SMILES: CSCC(C)NC(=O)c1c(I)cccc1C(=O)Nc1ccc(-c2cc(C(F)(F)F)nn2C(F)F)cc1C (stereo not drawn) [compound 512]
- controlling effect, rate of death [1]: 100%
- controlling effect, rate of death [2]: 100%
